Literature values in US5717095A, “Nucleotide analogs” (Gilead Sciences, Inc., priority 1996, dated 1998).

Test system: intraperitoneal P388 leukemia
Settings: murine; cited from earlier work

Question: Which antitumor activity does the source give for `Nc1ncnc2c1ncn2CC(CO)OCP(=O)(O)O` (stereo not shown) [HPMPA] here?
Answer: Its antitumor activity is “active”.
